Data reported in patent US20150306096A1, “8'-HYDROXY-DIHYDROERGOTAMINE COMPOUNDS AND COMPOSITIONS” (MAP Pharmaceuticals, Inc., priority 2012, published 2015).
Read-outs that look alike come from different tables or passages of the source.

Columns and labels:
human 5-HT2B receptor = target: T1, human 5-HT2B receptor (Homo sapiens, UniProt P41595); test: Radioligand competition binding and kinetics, CHO-K1 membranes
T1 construct: purchased Euroscreen; host or cells: CHO-K1
Experimental: For kinetics of radioligand competitive binding, serial dilutions were performed from master solution in 100% DMSO to obtain intermediate concentrations 200-fold higher than the concentrations to be tested. Each test sample was diluted 100-fold in the assay buffer and dispensed into the test plate.
Ligand: 5-HT (Sigma, H-9523)
Determination of the Kon constant. Radioligand association kinetics on each receptor were performed by adding in the wells of a 96 well plate 50 μL of radioligand and 50 μL of membrane extracts. The samples were incubated for the times reported in Table 3 below at a temperature optimized for each receptor and filtered over a filter plate. After washing the filters 5 times with 0.5 mL of ice-cold washing buffer, 50 μL of Microscint 20 (Packard) were added to the filters and the plates were incubated 15 min on an orbital shaker and then counted for 1 min/well. This allowed determination of the kobs for each radioligand. Association kinetics were performed at 5 different radioligand concentrations optimized for each receptor (see Table 3 below) to determine 5 different kobs. The different kobs were then plotted against the [radioligand] and the K. was calculated using the following equation: kon=(kobs−koff)[radioligand].
Determination of the Koff constant. Radioligand dissociation kinetics on each receptor were performed by adding in the wells of a 96 well plate 45 μL of radioligand and 45 μL of membrane extracts. The samples were incubated as reported in Table 4 below at a temperature optimized for each receptor until binding equilibrium was reached as determined by the association kinetics experiment. Then, 100 μL of cold competitor (reference ligand) were added at a 200 fold excess (final concentration) for the times reported in Table 4 at the optimized temperature. The samples were then filtered over a filter plate. After washing the filters 5 times with 0.5 mL of ice-cold washing buffer, 50 μL of Microscint 20 (Packard) were added to the filters and the plates were incubated 15 min on an orbital shaker and then counted for 1 min/well. This allowed determination of the koff for each radioligand.
Determination of IC50 and Ki constant for each test compound. […] After washing the filters 5 times with 0.5 mL of ice-cold washing buffer, 50 μL of Microscint 20 (Packard) were added to the filters and the plates were incubated 15 min on an orbital shaker and then counted for 1 min/well. […]
Determination of kon and koff constants for each test compound. Each compound was first assessed in a pilot experiment to evaluate its effect on the kinetic binding of each receptor-radioligand pair. […]

[1] = cited from earlier work
[2] = target: T2, human Serotonin 5-HT4e receptor (Homo sapiens, UniProt Q13639); test: cAMP HTRF functional assay (agonist/antagonist); type: cell-based
T2 construct: expressed in transfected cells; host or cells: CHO-K1 (transient)
Experimental: Functional profiling of agonist and antagonist activities of 8′-OH DHE on human Adrenergic α1D, Dopamine D2L, and Serotonin 5-HT1B, 5-HT1D, 5-HT1F, 5-HT3, 5-HT4e and 5-HT5A receptors (compared against the parent (DHE) molecule) was carried out as follows.
The SPA 35S-GTPγS tests were conducted with Euroscreen membrane preparations […]. The HTRF assays were conducted with recombinant cell lines. The receptor accession numbers, cellular background and reference compounds are as reported below in Table 10.
(4) DHE and 8′-OH DHE were tested for agonist and antagonist activity at the human Serotonin 5-HT1F and Serotonin 5-HT4E receptors using cAMP HTRF assay (in triplicate) at the following nanomolar concentrations: […]
Agonist activity of the test compounds was expressed as a percentage of the activity of the reference agonist at its EC100 concentration. Antagonist activity of the test compounds was expressed as a percentage of the inhibition of the reference agonist activity at its EC80 concentration. Dose-response data from the test compounds were analyzed with XLfit (IDBS) software using nonlinear regression applied to a sigmoidal dose-response model and the following equation: […]

T1 sequence (P41595 whole entry): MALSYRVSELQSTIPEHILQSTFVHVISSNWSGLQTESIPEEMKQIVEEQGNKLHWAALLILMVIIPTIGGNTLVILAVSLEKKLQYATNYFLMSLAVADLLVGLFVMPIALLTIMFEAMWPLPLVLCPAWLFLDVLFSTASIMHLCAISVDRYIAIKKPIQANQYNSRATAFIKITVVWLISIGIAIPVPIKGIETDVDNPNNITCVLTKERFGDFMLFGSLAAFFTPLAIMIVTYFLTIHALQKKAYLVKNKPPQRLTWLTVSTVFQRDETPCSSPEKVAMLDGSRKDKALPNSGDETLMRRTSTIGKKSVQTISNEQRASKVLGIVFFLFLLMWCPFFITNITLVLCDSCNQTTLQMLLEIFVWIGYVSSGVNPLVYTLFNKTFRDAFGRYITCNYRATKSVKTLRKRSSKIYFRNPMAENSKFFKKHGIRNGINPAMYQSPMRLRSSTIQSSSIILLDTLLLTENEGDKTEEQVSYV
T2 sequence (Q13639 1-378 isoform Q13639-5): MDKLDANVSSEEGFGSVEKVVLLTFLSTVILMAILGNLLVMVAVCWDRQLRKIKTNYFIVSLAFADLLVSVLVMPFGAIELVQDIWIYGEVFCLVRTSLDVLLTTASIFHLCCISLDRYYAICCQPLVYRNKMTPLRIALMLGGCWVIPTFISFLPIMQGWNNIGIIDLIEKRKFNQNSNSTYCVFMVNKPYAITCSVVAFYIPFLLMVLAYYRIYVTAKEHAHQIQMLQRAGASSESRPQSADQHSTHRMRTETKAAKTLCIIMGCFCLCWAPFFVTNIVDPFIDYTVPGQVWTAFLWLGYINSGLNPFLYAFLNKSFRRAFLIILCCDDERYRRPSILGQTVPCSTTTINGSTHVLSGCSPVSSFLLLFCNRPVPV

SMILES	IC50 (human 5-HT2B receptor; 5-HT2B, [3H]-Mesulergine, read-out: IC50 from binding assay)	metabolite concentration relative to parent DHE ([1]; previous studies)	EC50 ([2]; Serotonin 5-HT4e, cAMP HTRF, read-out: Functional activity (agonist))	IC50 (human 5-HT2B receptor)	serum half-life ([1]; serum)	EC50 [2]
CN1C[C@H](C(=O)N[C@]2(C)O[C@@]3(O)[C@@H]4CCC(O)N4C(=O)[C@H](Cc4ccccc4)N3C2=O)C[C@@H]2c3cccc4[nH]cc(c34)C[C@H]21 (stereo partly drawn) [8′-OH DHE, 8′-Hydroxy-Dihydroergotamine]	7.73 nM	5 to 7 times	109 nM	–	–	–
CN1C[C@H](C(=O)N[C@]2(C)O[C@@]3(O)[C@@H]4CCCN4C(=O)[C@H](Cc4ccccc4)N3C2=O)C[C@@H]2c3cccc4[nH]cc(c34)C[C@H]21 [DHE, Dihydroergotamine]	–	–	–	12.9 nM	10 to 13 h	105 nM
